Test results from patent publication US10940188B2, “Compounds and methods for treatment and prevention of Flavivirus infection” (priority 2016, dated 2021).
Where “and” joins values, the source holds several entries; their conditions need not be identical. Identical values can stand only once. Like-named read-outs stand apart in the source and are kept apart here.

How the values were obtained:
[1] = system: ZIKV-induced cell death in hNPCs; assay: ATP cell viability assay for ZIKV-induced cell death, hNPCs; assay type: cell-based, human; conditions: ZIKV-infected hNPCs
Description: (§1) The reagent was reconstituted and prepared as described by the manufacturer. In order to measure the cell death caused by ZIKV infection, cells were cultured for 16 hours at 37° C. with 5% CO2 in assay plates, followed by the addition of ZIKV solution and incubation at 37° C. with 5% CO2 for 72 hours. ATPlite, the ATP monitoring reagent, was then added to the assay plates and they were incubated for 15 minutes. The resulting luminescence was measured using the ViewLux plate reader (Perkin Elmer). Data were normalized using the wells without cells as a control for 100% cell killing, and cell-containing wells without ZIKV infection were used as full cell viability (0% cell killing).
Human NPCs were seeded onto PDL coated 1536-well assay plates at 250 cells per 3 μl/well and incubated at 37° C. in 5% CO2 for 16 hours. Test compounds dissolved in DMSO were transferred to assay plates at a volume of 23 nl/well by an automated pintool workstation (Wako Automation, San Diego, Calif.). Compounds were incubated with cells for 30 minutes at 37° C. in 5% CO2, immediately followed by the addition of 2 μl/well of ZIKV. Incubation time of compound-treated cells with ZIKV varied based on assay format. Experiments measuring virus-induced caspase 3/7 activity required a 6 hour incubation of ZIKV in the presence compounds at 37° C. in 5% CO2. Following this incubation, 3.5 μl/well of caspase 3/7 reagent mixture was added to assay plates. The plates were incubated for 30 minutes at room temperature, and the resultant luminescence signal was measured using a ViewLux plate reader (Perkin Elmer). Experiments measuring virus-induced cell death required a 72-hour incubation of ZIKV in the presence of compounds at 37° C. in 5% CO2. Following this incubation, 3.5 μl/well of ATP content detection reagent was added to assay plates, incubated for 30 minutes at the room temperature, and the resultant luminescence signal was measured in a ViewLux plate reader.
as §1, with “The ATPlite luminescence assay system assay kit (PerkinElmer) was used to determine cell viability. The reagent” for “The reagent”, “by the manufacture. In order” for “by the manufacturer. In order”, “followed by addition of” for “followed by the addition of”, “plates and incubated for” for “plates and they were incubated for”, “Elmer). Data was normalized using” for “Elmer). Data were normalized using”
Human NPCs were seeded onto PDL coated 1536-well assay plates at 250 cells per 3 μl/well and incubated at 37° C. in 5% CO2 for 16 hours. Test compounds dissolved in DMSO were transferred to assay plates at a volume of 23 nl/well by an automated pintool workstation (Wako Automation, San Diego, Calif.). Compounds were incubated with cells for 30 minutes at 37° C. in 5% CO2, immediately followed by the addition of 2 μl/well of ZIKV. Incubation time of compound-treated cells with ZIKV varied based on assay format. Experiments measuring virus induced caspase 3/7 activity required a 6 hour incubation of ZIKV in the presence compounds at 37° C. in 5% CO2. Following this incubation, 3 μl/well of caspase 3/7 reagent mixture was added to assay plates, incubated for 30 minute at room temperature, and the resultant luminescence signal was measured using a ViewLux plate reader (Perkin Elmer). Experiments measuring the virus induced cell death required a 72 hour incubation of ZIKV in the presence of compounds at 37° C. in 5% CO2. Following this incubation, 3 μl/well of ATP content detection reagent was added to assay plates, incubated for 30 minute at room temperature, and the resultant luminescence signal was measured in a ViewLux plate reader.

[2] = system: ZIKV-induced caspase 3/7 activity in human astrocytes; assay: Caspase 3/7 activity assay, ZIKV-infected human astrocytes; assay type: cell-based; conditions: ZIKV-infected human astrocytes; for IC50: read-out: Caspase 3 (IC50, uM) Astrocyte; for Emax: read-out: Caspase 3 (efficacy, %) Astrocyte
Summary of the method: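 Human NPCs, SNB-19 cells or astrocytes seeded 16 h, compound added 30 min before ZIKV, then 6 h infection at 37 °C. Caspase-Glo 3/7 luminescence after 30 min at room temperature, normalized to uninfected cells (0%) and ZIKV-infected cells (100%).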

[3] = system: ZIKV-induced cell death in human astrocytes; assay: ATP cell viability assay for ZIKV-induced cell death, human astrocytes; assay type: cell-based

Compound | IC50 ([1]; Homo sapiens, read-out: Cell viability (IC50, uM) NPCs) [µM] | Cell viability (efficacy, %) NPCs [1] [%] | IC50 ([2]; Astrocyte) [µM] | Emax ([2]; Astrocyte) [%] | Cell viability (efficacy, %) Astrocyte ([3]; ZIKV-infected human astrocytes) [%] | Caspase 3 (efficacy, %) Astrocyte [2] | IC50 [2] | IC50 ([3]; Astrocyte, ZIKV-infected human astrocytes, read-out: Cell viability (IC50, uM) Astrocyte) [µM] | IC50 ([3]; ZIKV-infected human astrocytes, read-out: Cell viability (IC50, uM) Astrocyte) [µM] | IC50 ([3]; following ZIKV infection, read-out: IC50 (μM) for improving cell viability, Astrocytes) [µM]
O=C(O)c1ccccc1NCCc1ccccc1 [Enfenamic acid] | 7.74 | 58.5 | 25.9 | 58 | 0.0 | – | – | – | – | –
O=C1NC(=O)C(=Cc2ccc(-c3ccc(F)cc3)o2)S1 [CAY10505] | – | 0.0 | – | – | 0.0 | 80.1% | 16.4 µM | – | – | –
Vitamin B12 | – | 0.0 | – | – | 0.0 | 77.1% and 62.7% | 8.69 µM and 6.73 µM | – | – | –
CN(C)CCCSc1ccccc1NC(=O)/C=C/c1ccccc1 [Cinanserin] | – | 0.0 | 15.5 | 80.2 | 0.0 | – | – | – | – | –
CC(C(=O)O)c1ccc(C(=O)c2ccccc2)s1 (centres unmarked) [Tiaprofenic acid] | – | 0.0 | 6.15 | 88.2 | 0.0 | – | – | – | – | –
CCOCCOC(=O)C=Cc1ccc(OC)cc1 [2-Ethoxylethyl-p-methoxycinnamate] | – | 0.0 | – | 0 | 0.0 | – | – | – | – | –
CC(=O)Oc1cccc2c1C(=O)c1c(OC(C)=O)cc(C(=O)O)cc1C2=O [Diacerein] | – | 0.0 | 15.5 | 72.9 | 35.2 | – | – | 30.8 | – | –
O=C(O)c1cc([N+](=O)[O-])ccc1NCCCc1ccccc1 [5-Nitro-2-(3-phenylpropylamino)benzoic acid] | – | 0.0 | 9.75 | 82.1 | 0.0 | – | – | – | – | –
c1ccc(CCNc2nc(-c3ccccc3)cs2)cc1 [Fanetizole] | – | 0.0 | 10.9 | 72.9 | 0.0 | – | – | – | – | –
COc1ccc(-c2cc(=S)ss2)cc1 [Anethole trithione] | – | 0.0 | 13.8 | 62.7 | 0.0 | – | – | – | – | –
O=C(OCc1ccccc1)c1ccc(O)cc1 [Benzylparaben] | – | 0.0 | 17.3 | 62.8 | 0.0 | – | – | – | – | –
CC(C(=O)O)c1ccc(C(=O)c2cccs2)cc1 (centres unmarked) [Suprofen] | – | 0.0 | 19.5 | 64.5 | 0.0 | – | – | – | – | –
CN1CC(=O)NC1=NC(=O)Nc1cccc(Cl)c1 [Fenobam] | – | 0.0 | – | – | 0.0 | 97.2% | 9.2 µM | – | – | –
Cc1ccc(O)c(-n2nc3ccccc3n2)c1 [2-(2H-Benzotriazol-2-yl)-4-methylphenol] | – | 0.0 | 9.2 | 68.5 | 0.0 | – | – | – | – | –
CC(=O)Nc1ccc([C@H](C)C(=O)Nc2ncc(C(C)C)s2)cc1 [PHA-690509] | – | – | – | – | 81.9 | 71.6% | 13 µM | – | 7.74 | 7.47
